# Patent US20260294947A1, “FUCOSYLATED MAMMALIAN MILK OLIGOSACCHARIDE FOR USE IN THE PREVENTION OR TREATMENT OF SHIPPING FEVER” (Inbiose N.V., priority 2023, published 2026)
# Columns and labels:
# [1] = system: acute pneumonia; assay: Acute pneumonia incidence in calves fed 2′FL-supplemented calf milk replacer versus placebo (standard CMR); format: in vivo, Holstein Friesian calves (bovine)
# Method: (§1) Holstein Friesian calves (2-3 week-old, 95% male) were transported from different farms to the experimental facility of Denkavit (Voorthuizen, The Netherlands) where the animals were reared. The experiment was performed in two trial rounds.
# (§2) The calves were randomly and gender-equally divided in two groups based on experimental calf milk replacer: group A (placebo-standard calf milk replacer (CMR) powder of the farm) and group B (standard CMR powder supplemented with 0.005% drywt. 2′-fucosyllactose (2′FL, see Example 1). The calf milk replacer was administered as a liquid to the calves (water was added to the CMR powder to obtain 150 gram CMR powder per liter liquid CMR). Each group involved […], assigned into 12 rows. Each row contained 4 pens, where six calves were living in one pen.
# (§3) 2′-fucosyllactose was supplied to calves via CMR (major components are presented in Table 1) during the whole trial, lasting 6 months. The Start CMR was given from arrival till week 6, which then switched to the Gold Alfa CMR up to day 136. The remaining time calves were fed with the Omega CMR. Solid feed (concentrates) was introduced gradually from arrival, starting with the Avance Alfa up till day 126, then replaced by the Avance Omega till the end of the experiment. Feed was provided ad libitum to calves twice a day (morning and evening) and were recorded daily based on rows (concentrates, straw, corn silage) or groups (CMR) consumption.
# (§4) The calves were randomly and gender-equally divided in two groups based on experimental calf milk replacer (CMR): group A (placebo-standard CMR powder of the farm), group B (standard CMR powder supplemented with 0.005% drywt. 2′FL). The calf milk replacer was administered as a liquid to the calves (water was added to the CMR powder to obtain 150 gram CMR powder per liter liquid CMR). Each group involved 100 calves, assigned into four rows (25 calves per row) of two compartment blocks. Each row contained five pens, where four to six calves were living in one pen.
# (§5) Starting from the day of arrival, calves received standard calf milk replacer (CMR) during a period of 9 weeks. Group A only received the CMR, while the CMR supplied to groups B was supplemented with 0.005% drywt. 2′FL. Calf starter (concentrates) and straw were introduced gradually from day 6 till the end of the experiment (12 weeks) while calves had access to corn silage at weeks 11 and 12. Feed were provided ad libitum to calves twice a day (morning and evening) and were recorded daily based on rows (concentrates, straw, corn silage) or groups (CMR) consumption.
# Calves were followed up by the farm staffs since arrival till the end of the trial. Fecal consistency in scale 1-4 (Larson et al., 1977, J. Dairy Science, 60 (6): p. 989-991) was recorded daily for the first ten days since arrival. Number of mortalities and signs of adverse effects were registered daily. The animals were treated prophylactically or metaphylactically (herd treatment) with 1 g oxytetracycline 100% (at day 4), 0.5 g Doxylin 50% WSP and 0.8 g bromhexine 2% (at day 13), and 3.1 ml Tilmicosol 250 mg/ml (at day 24) to prevent and/or treat acute lung inflammation. Individual treatments were followed by remark of the farm staffs and diagnostic of farm veterinary practitioners. Disease incidences and medicinal usage based on individual treatments were recorded to compare between treatment groups. Live weight of the animals was monitored at arrival (d1), two weeks (W2), six weeks (W6), ten weeks (W10) and 12 weeks (W12) and 17 weeks (W17) since arrival. Feed conversion ratio (FCR) of each period was computed based on the input of daily weight gain and daily feed intake. […]
# [2] = system: diarrhea; assay: Diarrhea incidence in calves fed 2′FL-supplemented calf milk replacer versus placebo (standard CMR); format: in vivo, Holstein Friesian calves (bovine); details: for Diarrhea cases: group B, 0.005% drywt. 2′FL in CMR
# Method: as §1, §2, §3
# The calves were randomly and gender-equally divided in two groups based on experimental calf milk replacer (CMR): group A (placebo-standard CMR powder of the farm), group B (standard CMR powder supplemented with 0.005% drywt. 2′FL). […]
# Starting from the day of arrival, calves received standard calf milk replacer (CMR) during a period of 9 weeks. […] Feed were provided ad libitum to calves twice a day (morning and evening) and were recorded daily based on rows (concentrates, straw, corn silage) or groups (CMR) consumption.
# Calves were followed up by the farm staffs since arrival till the end of the trial. Fecal consistency in scale 1-4 (Larson et al., 1977, J. Dairy Science, 60 (6): p. 989-991) was recorded daily for the first ten days since arrival. […] Disease incidences and medicinal usage based on individual treatments were recorded to compare between treatment groups. Live weight of the animals was monitored at arrival (d1), two weeks (W2), six weeks (W6), ten weeks (W10) and 12 weeks (W12) and 17 weeks (W17) since arrival. […]
# (§6) Odds ratios and risk ratios of the pneumonia and diarrhea incidence were evaluated with the epitools R package using the Wald test (cran.r-project.org/web/packages/epitools/epitools.pdf). […]
# [3] = Mortality and adverse effects in calves (health and safety observation); format: in vivo, Holstein Friesian calves (bovine)
# Method: as §1, §2, §3, §4, §5
# Calves were followed up by the farm staffs since arrival till the end of the trial. Fecal consistency in scale 1-4 (Larson et al., 1977, J. Dairy Science, 60 (6): p. 989-991) was recorded daily for the first ten days since arrival. Number of mortalities and signs of adverse effects were registered daily. […] Disease incidences and medicinal usage based on individual treatments were recorded to compare between treatment groups. Live weight of the animals was monitored at arrival (d1), two weeks (W2), six weeks (W6), ten weeks (W10) and 12 weeks (W12) and 17 weeks (W17) since arrival. […]
# as §6
# [4] = system: jejunum; assay: Jejunal RNAseq (transcriptomics), Gene Ontology enrichment analysis of differentially expressed genes, 2′FL versus placebo; format: in vivo, Bos taurus (calves); details: day 71 (W11)
# Method: One healthy and middle weight calf of one pen per group was picked for euthanization in the slaughterhouse at day 71 (W11) (8 calves in total, 4 per group). A 20 cm segment of jejunum without Peyer's patch was excised and washed three times with physiological serum using a 30 ml syringe. A small segment (2-3 mm) was further excised and stored in 2 ml RNA protect tissue reagent (Qiagen) containing RNA preservation buffer for transportation at room temperature before long-term storage at −80° C.
# Jejunal specimens stored in RNA protect tissue reagent were excised further to transfer 50 mg tissue into 2 ml tubes. The tissues were disrupted and homogenized using one stainless steel bead 5 mm in 900 μl QIAzol lysis reagent (QIAgen) in combination with a FASTPREP® 24 device. The homogenates were further manipulated according to the guidance of the manufacturer of the RNeasy plus universal tissue mini kit (QIAgen). The total purified RNA were eluted in 40 μl and quickly checked for the concentration and quality using Nanodrop (Implen NANOPHOTOMETER®) before storage at −80° C.
# Total RNA was submitted to Azenta (Genewiz, Germany) to perform RNA sequencing. The total RNA was checked again for quality and concentration using Qubit and fragment analyzer before the mRNA were selected for polyA library preparation and sequenced using the ILLUMINA® Novaseq™ 2×150 bp technology platform guaranteed 20 million paired-end reads per samples (40 million reads).
# RNA sequencing reads were quality-checked with fastqc (bioinformatics.babraham.ac.uk/projects/fastqc/) and trimmed with Trimmomatic (Bolger et al., 2014, Bioinformatics 30 (15): p. 2114-2120). Reads were aligned to the cow reference (Bos_taurus_UMD_3.1.1) using the genome alignment method in STAR (Dobin et al., 2013, Bioinformatics 29 (1): p. 15-21); Gene expression was quantified by featureCounts (Liao et al., 2014, Bioinformatics 30 (7): p. 923-930) and differential expression analysis was performed using DEseq2 (Love et al., 2014, Genome Biol. 15 (2): 550). Enrichment analysis of differential expressed was done in clusterProfiler (Wu et al., 2021, Innovation 2 (3): 100141) based on Gene Ontology.
substance,measurement,setting,value
2′-fucosyllactose [2′FL],"Relative risk of getting acute pneumonia, group B versus placebo","[1]; round 1 (veal calf), 0.005% drywt. 2′FL in CMR",0.86
same,Acute pneumonia cases,"[1]; round 1 (veal calf), group B, 0.005% drywt. 2′FL in CMR, 6 months, out of 290 calves, placebo 111 cases",96 cases
same,"Relative risk of getting acute pneumonia, group B versus placebo","[1]; round 2 (rearing calf), 0.005% drywt. 2′FL in CMR",0.63
same,Acute pneumonia cases,"[1]; round 2 (rearing calf), group B, 0.005% drywt. 2′FL in CMR for 9 weeks, 12-week trial, 100 calves per group, placebo 27 cases",17 cases
same,"Acute pneumonia cases, share of calves","[1]; round 2 (rearing calf), group B, placebo 27%",17%
same,Common odds ratio of acute pneumonia,"[1]; rounds 1 and 2 integrated, standard CMR (placebo) versus 2′FL supplemented CMR, Mantel-Haenszel",1.35
same,"Relative risk of getting diarrhea, group B versus placebo",[2]; round 1 (veal calf),0.71
same,Diarrhea cases,"[2]; round 1 (veal calf), out of 290 calves, placebo 51 cases",36 cases
same,Odds ratio associated with diarrhea,"[2]; round 1 (veal calf), standard CMR (placebo) versus 2′FL supplemented CMR",1.51
same,Diarrhea cases,"[2]; round 2 (rearing calf), 100 calves per group, placebo 1 case",0 cases
same,Adverse effects,"[3]; registered by the farm staffs, target animals (calves), both rounds",no adverse effects
same,Mortality,"[3]; round 1, 6 months, group B (2′FL), placebo 4.14%, 262800 min",3.1%
same,Calves dead,"[3]; round 1, 6 months, group B (2′FL), placebo 12 (4.14%)",9 calves
same,"Mortality, difference between groups","[3]; round 1, 6 months, Kaplan-Meier test",no significant difference in mortality between the experimental groups
same,"Mortality, difference between groups","[3]; round 2, 12 weeks, 7/400 calves died in all groups",no significant difference in mortality between the different groups
same,Immune responses versus placebo (enrichment analysis),[4]; 4 calves per group,"enhanced immune responses in several ways (T cell activation, cell differentiation, cell-cell adhesion, adaptive immune response)"
same,"p. adjust, up-regulated gene ontology process ADAPTIVE_IMMUNE_RESPONSE",[4]; group B versus placebo,4.15E−06
same,"p. adjust, up-regulated gene ontology process ADAPTIVE_IMMUNE_RESPONSE_BASED_ON_SOMATIC_RECOMBINATION_OF_IMMUNE_RECEPTORS_BUILT_FROM_IMMUNOGLOBULIN_SUPERFAMILY_DOMAINS",[4]; group B versus placebo,0.00573
same,"p. adjust, up-regulated gene ontology process EXTERNAL_SIDE_OF_PLASMA_MEMBRANE",[4]; group B versus placebo,0.000673
same,"p. adjust, up-regulated gene ontology process HETEROTYPIC_CELL_CELL_ADHESION",[4]; group B versus placebo,0.003478
same,"p. adjust, up-regulated gene ontology process LEUKOCYTE_DIFFERENTIATION",[4]; group B versus placebo,0.003462
same,"p. adjust, up-regulated gene ontology process LYMPHOCYTE_MEDIATED_IMMUNITY",[4]; group B versus placebo,0.003478
same,"p. adjust, up-regulated gene ontology process MONONUCLEAR_CELL_DIFFERENTIATION",[4]; group B versus placebo,0.000274
same,"p. adjust, up-regulated gene ontology process NEGATIVE_REGULATION_OF_ADAPTIVE_IMMUNE_RESPONSE",[4]; group B versus placebo,0.002368
same,"p. adjust, up-regulated gene ontology process NEGATIVE_REGULATION_OF_IMMUNE_SYSTEM_PROCESS",[4]; group B versus placebo,0.001169
same,"p. adjust, up-regulated gene ontology process NEGATIVE_REGULATION_OF_LEUKOCYTE_MEDIATED_IMMUNITY",[4]; group B versus placebo,0.002368
same,"p. adjust, up-regulated gene ontology process NEGATIVE_REGULATION_OF_LYMPHOCYTE_MEDIATED_IMMUNITY",[4]; group B versus placebo,0.00552
same,"p. adjust, up-regulated gene ontology process POSITIVE_THYMIC_T_CELL_SELECTION",[4]; group B versus placebo,0.00573
same,"p. adjust, up-regulated gene ontology process POSITIVE_T_CELL_SELECTION",[4]; group B versus placebo,0.003206
same,"p. adjust, up-regulated gene ontology process REGULATION_OF_ADAPTIVE_IMMUNE_RESPONSE",[4]; group B versus placebo,0.003206
same,"p. adjust, up-regulated gene ontology process REGULATION_OF_LEUKOCYTE_MEDIATED_IMMUNITY",[4]; group B versus placebo,0.003478
same,"p. adjust, up-regulated gene ontology process REGULATION_OF_T_CELL_ACTIVATION",[4]; group B versus placebo,0.003668
same,"p. adjust, up-regulated gene ontology process T_CELL_ACTIVATION",[4]; group B versus placebo,9.06E−06
same,"p. adjust, up-regulated gene ontology process T_CELL_DIFFERENTIATION",[4]; group B versus placebo,0.000662
same,"p. adjust, up-regulated gene ontology process T_CELL_PROLIFERATION",[4]; group B versus placebo,0.002368
same,"p. adjust, up-regulated gene ontology process T_CELL_RECEPTOR_COMPLEX",[4]; group B versus placebo,0.000274
